From paper PMC5577610, “Nine New Triterpene Glycosides, Magnumosides A1–A4, B1, B2, C1, C2 and C4, from the Vietnamese Sea Cucumber Neothyonidium (=Massinium) magnum: Structures and Activities against Tumor Cells Independently and in Synergy with Radioactive Irradiation” (Marine Drugs, 2017)
Counter-ions that a name gives are not always drawn.

What was measured:
Assay type in all cases: cell-based
mouse erythrocytes = details: for Hemolytic action (in words): mouse erythrocytes
Description: The erythrocytes were washed thrice with 0.9% NaCl, centrifuged (450 g) on a centrifuge […] (Heraeus, Hanau, Germany) for 5 min followed by re-suspending in phosphate-buffered saline (PBS), pH 7.2-7.4. […] ED50 was calculated using SigmaPlot 3.02 software (Jandel Scientific, San Rafael, CA, USA). […] The erythrocyte suspension in phosphate-buffered saline, pH 7.2-7.4 (PBS) with 20 μL of the solvent without a tested compound was used as negative control.

[1] = tested on: human colorectal adenocarcinoma DLD-1 cells; assay: Cytotoxicity against DLD-1 cells (MTS assay); details: for IC50: Homo sapiens, DLD-1, read-out: IC50 (50% reduction in cell viability), DLD-1 cells, 24 h, 0–100 µM; for Cytotoxic effect against DLD-1 cells (in words): 0–100 µM, 24 h
Description: (§1) Human colorectal adenocarcinoma cells DLD-1 were cultured in RPMI-1640 medium. Culture media was supplemented with 10% fetal bovine serum (FBS) and penicillin—streptomycin solution. Cells were maintained in a sterile environment and kept in an incubator at 5% CO2 and 37 °C to promote growth. DLD-1 cells were sub-cultured every 3–4 days by their rinsing with phosphate buffered saline (PBS), adding trypsin to detach the cells from the tissue culture flask, and transferring 10–20% of the harvested cells to a new flask containing fresh growth media.
DLD-1 cells (1.0 × 10^4/well) were seeded in 96-well plates for 24 h at 37 °C in 5% CO2 incubator. The cells were treated with the compounds 1–9 at concentrations range from 0 to 100 µM for additional 24 h. Subsequently, cells were incubated with 15 µL MTS reagent for 3 h, and the absorbance of each well was measured at 490/630 nm using microplate reader “Power Wave XS” (Bio Tek, Winooski, VT, USA). All the experiments were repeated three times, and the mean absorbance values were calculated. The results are expressed as the percentage of inhibition that produced a reduction in absorbance by compound’s treatment compared to the non-treated cells (control).

[2] = Cytotoxic activity (MTT) against mouse spleenocytes; details: CD-1, mouse
Description: (§2) The spleenocytes from CD-1 line mice were used. The spleen was isolated from mice and homogenized. The spleenocytes were washed thrice and resuspended with RPMI-1640 medium contained gentamicine 8 μg/mL (Biolot, Saint Petersburg, Russia). The museum tetraploid strain of murine ascites Ehrlich carcinoma cells from the All-Russian cancer center RAMS (Moscow, Russia) was used. The cells of the ascites Ehrlich carcinoma were separated from ascites, which were collected on day 7 after inoculation in mouse CD-1 line. The cells were washed of ascites thrice and then resuspended in liquid media DMEM with L-Glutamine (Biolot, Saint Petersburg, Russia).
(§3) The solutions of tested substances in different concentrations (20 µL) and cell suspension (200 µL) were added in wells of 96-well plate and incubated over night at 37 °C and 5% CO2. After incubation the cells were sedimented by centrifugation, 200 µL of medium from each well were collected and 100 µL of pure medium were added. Then 10 µL of MTT solution […] (Sigma, St. Louis, MO, USA) were added in each well. Plate was incubated 4 h, after that 100 µL SDS-HCl were added to each well and plate was incubated at 37 °C 4–18 h. Optical density was measured at 570 nm and 630–690 nm. The activity of the substances was calculated as the ratio of the dead cells to general cells amount (ED50). Typicoside A1 [28] and cucumarioside A2-2 [11] were used as positive controls.

[3] = Cytotoxic activity (MTT) against the ascites form of mouse Ehrlich carcinoma cells; details: mouse
Description: as §2, §3

[4] = tested on: human colorectal adenocarcinoma DLD-1 cells; assay: Soft agar assay, colony formation of DLD-1 cells; details: 14 days; for Reduction of colonies size: 10 µM; for inhibition at 10 µM: Homo sapiens, DLD-1, 336 h, read-out: Inhibition of spontaneous colony formation (number of colonies)
Description: as §1
DLD-1 cells (8.0 × 10^3) were seeded in 6-well plate and treated with the 3, 7–9 (10 µM) in 1 mL of 0.3% Basal Medium Eagle (BME) agar containing 10% FBS, 2 mM L-glutamine, and 25 µg/mL gentamicin. The cultures were maintained at 37 °C in a 5% CO2 incubator for 14 days, and the cell’s colonies were scored using a microscope “Motic AE 20” (Scientific Instrument Company, Campbell, CA, USA) and the Motic Image Plus computer program (Scientific Instrument Company, Campbell, CA, USA).

[5] = tested on: human colorectal adenocarcinoma DLD-1 cells; assay: Radioactive irradiation plus compounds, DLD-1 cell proliferation (MTS); details: compounds 2 µM, radiation 4 Gy, 96 h, MTS assay, read-out: Increase of the inhibitory effect from radiation on proliferation
Description: Figure 7 The effect of radioactive irradiation and a combination of radioactive irradiation and the compounds 3, 7–9 on DLD-1 cancer cell proliferation. DLD-1 cells (8.0 × 10^3) were treated with radiation 4 Gy and the compounds 3, 7–9 (2 µM) for 96 h. Cell viability was estimated using the MTS assay. Data are represented as the mean ± SD as determined from triplicate experiments. A Student’s t-test was used to evaluate the data with the following significance levels: * p < 0.05, ** p < 0.01.
DLD-1 cells (8 × 10^3) cells were seeded in 96-well plates in […] of RPMI-1640/10%FBS medium at 37 °C in a 5% CO2 incubator for 24 h. Then the cells were treated with 2 µM of 3, 7–9 for additional 24, 48, 72 or 96 h at 37 °C in a 5% CO2 atmosphere. The reaction was terminated by adding MTS reagent to each well as described in the Section 3.5.5.
Irradiation was delivered at room temperature using single doses of X-ray system XPERT 80 (KUB Technologies, Inc, Milford, CT, USA). The doses were from 4 to 8 Gy for colony formation assay. The absorber dose was measured using X-ray radiation clinical dosimeter DRK-1 (Akselbant, Moscow, Russia).
DLD-1 cells (5.0 × 10^5) were plated at 60 mm dishes and incubated for 24 h. After the incubation, the cells were cultured in the presence or absence of 2 μM 3, 7–9 for additional 24 h before irradiation at the dose of 4 Gy. Immediately after irradiation, cells were returned to the incubator for recovery. Three hour later, the cells were harvested and used for soft agar assay or proliferation assay to establish the synergism of radioactive irradiation and investigated compounds effects on colony formation or proliferation of tested cells.

mouse spleenocytes = assay: Cytotoxic activity (MTT) against mouse spleenocytes; details: up to the ultimate investigated concentration of 100 μM
Description: as §2, §3

COC1C(O)C(CO)OC(OC2COC(OC3C(C)OC(OC4C(OC5CCC6(C)C7CCC89C(=O)OC(CC8(C)C7=CCC6C5(C)C)C9C(C)(O)CC=CC(C)(C)O)OCC(OS(=O)(=O)O)C4O)C(O)C3O)C(O)C2O)C1O [Compound 5, 3β-O-[3-O-methyl-β-D-glucopyranosyl-(1→3)-β-D-xylopyranosyl-(1→4)-β-D-quinovopyranosyl-(1→2)-4-O-sodium sulfate-β-D-xylopyranosyl]-9βH,20(S),25-dihydroxylanosta-7,23E-diene-18(16)-lactone]
Hemolytic action (in words) (mouse erythrocytes): moderate hemolytic activity | IC50 [1]: > 100 µM | IC50 [2]: > 100 µM | IC50 [3]: > 100 µM

C=C(C)CCCC(C)(O)C1C2CC3(C)C4=CCC5C(C)(C)C(OC6OCC(OS(=O)(=O)O)C(O)C6OC6OC(C)C(O)C(O)C6O)CCC5(C)C4CCC13C(=O)O2 [Compound 3, 3β-O-[β-D-quinovopyranosyl-(1→2)-4-O-sodium sulfate-β-D-xylopyranosyl]-9βH,20(S)-hydroxylanosta-7,25-diene-18(16)-lactone]
Reduction of colonies size [4]: 49% | inhibition at 10 µM [4]: 22% | IC50 [1]: 30.3 µM | inhibition at 2 µM [5]: > 30% | IC50 [2]: 19.2 ± 0.03 µM | IC50 [3]: 18.95 ± 0.03 µM

Triton X-100 [reference compound]
Hemolysis of cells (mouse erythrocytes; concentration 1%, positive control): 100%

CC1OC(OC2C(OC3CCC4(C)C5CCC67C(=O)OC(CC6(C)C5=CCC4C3(C)C)C7C3(C)CCC(C(C)(C)O)O3)OCC(OS(=O)(=O)O)C2O)C(O)C(O)C1O [Compound 1, 3β-O-[β-D-quinovopyranosyl-(1→2)-4-O-sodium sulfate-β-D-xylopyranosyl]-9βH,20(S),24(S)-epoxy-25-hydroxylanosta-7-ene-18(16)-lactone]
Hemolytic action (in words) (mouse erythrocytes): inactive | Cytotoxic effect against DLD-1 cells (in words) [1]: did not possessed cytotoxic effect | IC50 [1]: > 100 µM | Cytotoxic action against spleenocytes (in words) (mouse spleenocytes): inactive | IC50 [2]: > 100 µM | IC50 [3]: > 100 µM

C=C(C)C(O)CCC(C)(O)C1C2CC3(C)C4=CCC5C(C)(C)C(OC6OCC(OS(=O)(=O)O)C(O)C6OC6OC(C)C(OC7OCC(OC8OC(COS(=O)(=O)O)C(O)C(OC)C8O)C(O)C7O)C(O)C6O)CCC5(C)C4CCC13C(=O)O2 [Compound 8, 3β-O-[6-O-sodium sulfate-3-O-methyl-β-D-glucopyranosyl-(1→3)-β-D-xylopyranosyl-(1→4)-β-D-quinovopyranosyl-(1→2)-4-O-sodium sulfate-β-D-xylopyranosyl]-9βH,20(S),24(S)-dihydroxylanosta-7,25-diene-18(16)-lactone]
Reduction of colonies size [4]: less than 20% | inhibition at 10 µM [4]: < 20% | Hemolytic action (in words) (mouse erythrocytes): significant effects | IC50 [1]: 37.1 µM | inhibition at 2 µM [5]: > 30% | IC50 [2]: 17.3 ± 0.43 µM | IC50 [3]: 37.5 µM

C=C(C)C(O)CCC(C)(O)C1C2CC3(C)C4=CCC5C(C)(C)C(OC6OCC(OS(=O)(=O)O)C(O)C6OC6OC(C)C(OC7OCC(OC8OC(CO)C(O)C(OC)C8O)C(O)C7O)C(O)C6O)CCC5(C)C4CCC13C(=O)O2 [Compound 6, 3β-O-[3-O-methyl-β-D-glucopyranosyl-(1→3)-β-D-xylopyranosyl-(1→4)-β-D-quinovopyranosyl-(1→2)-4-O-sodium sulfate-β-D-xylopyranosyl]-9βH,20(S),24(S)-dihydroxylanosta-7,25-diene-18(16)-lactone]
Hemolytic action (in words) (mouse erythrocytes): moderate hemolytic activity | IC50 [1]: > 100 µM | IC50 [2]: > 100 µM | IC50 [3]: > 100 µM

CC(C)=CCCC(C)(O)C1C2CC3(C)C4=CCC5C(C)(C)C(OC6OCC(OS(=O)(=O)O)C(O)C6OC6OC(C)C(O)C(O)C6O)CCC5(C)C4CCC13C(=O)O2 [Compound 4, 3β-O-[β-D-quinovopyranosyl-(1→2)-4-O-sodium sulfate-β-D-xylopyranosyl]-9βH,20(S)-hydroxylanosta-7,24-diene-18(16)-lactone]
IC50 [1]: > 100 µM | IC50 [2]: 37.6 µM | IC50 [3]: 28.4 ± 0.42 µM

COC1C(O)C(COS(=O)(=O)O)OC(OC2COC(OC3C(C)OC(OC4C(OC5CCC6(C)C7CCC89C(=O)OC(CC8(C)C7=CCC6C5(C)C)C9C(C)(O)CC=CC(C)(C)O)OCC(OS(=O)(=O)O)C4O)C(O)C3O)C(O)C2O)C1O [Compound 7, 3β-O-[6-O-sodium sulfate-3-O-methyl-β-D-glucopyranosyl-(1→3)-β-D-xylopyranosyl-(1→4)-β-D-quinovopyranosyl-(1→2)-4-O-sodium sulfate-β-D-xylopyranosyl]-9βH,20(S),25-dihydroxylanosta-7,23E-diene-18(16)-lactone]
Reduction of colonies size [4]: 43% | inhibition at 10 µM [4]: 26% | Hemolytic action (in words) (mouse erythrocytes): significant effects | IC50 [1]: 32.9 µM | IC50 [2]: 8.97 ± 0.04 µM | IC50 [3]: 18.7 µM

C=C(C)C(O)CCC(C)(O)C1C2CC3(C)C4=CCC5C(C)(C)C(OC6OCC(OS(=O)(=O)O)C(O)C6OC6OC(C)C(O)C(O)C6O)CCC5(C)C4CCC13C(=O)O2 [Compound 2, 3β-O-[β-D-quinovopyranosyl-(1→2)-4-O-sodium sulfate-β-D-xylopyranosyl]-9βH,20(S),24(S)-dihydroxylanosta-7,25-diene-18(16)-lactone]
Hemolytic action (in words) (mouse erythrocytes): moderate hemolytic activity | Cytotoxic effect against DLD-1 cells (in words) [1]: did not possessed cytotoxic effect | IC50 [1]: > 100 µM | IC50 [2]: 94.2 ± 1.18 µM | IC50 [3]: > 100 µM

COC1C(O)C(COS(=O)(=O)O)OC(OC2COC(OC3C(C)OC(OC4C(OC5CCC6(C)C7CCC89C(=O)OC(CC8(C)C7=CCC6C5(C)C)C9C(C)(O)CCC=C(C)C)OCC(OS(=O)(=O)O)C4O)C(O)C3O)C(O)C2O)C1O [Compound 9, 3β-O-[6-O-sodium sulfate-3-O-methyl-β-D-glucopyranosyl-(1→3)-β-D-xylopyranosyl-(1→4)-β-D-quinovopyranosyl-(1→2)-4-O-sodium sulfate-β-D-xylopyranosyl]-9βH,20(S)-hydroxylanosta-7,24-diene-18(16)-lactone]
Reduction of colonies size [4]: less than 20% | inhibition at 10 µM [4]: < 20% | IC50 [1]: 33.9 µM | inhibition at 2 µM [5]: 45% | IC50 [2]: 12.2 ± 0.33 µM | IC50 [3]: 35.06 ± 0.18 µM
